Results as given in patent publication US6169074A, “Peptide inhibitors of neurotransmitter secretion by neuronal cells” (The Regents of the University of California, priority 1997, dated 2001).
pIC50: −log10 of the molar value.

How the values were obtained:
[1] = tested on: catecholamine release from permeabilized bovine chromaffin cells; assay type: cell-based; conditions: for pIC50: read-out: concentration reaching 50% inhibitory activity (inhibition of Ca2+ dependent secretion); for effect on Ca2+ dependent (Ca2+-triggered) secretion: peptides at 100 μM concentration, FIG. 7A
mouse neuron = test: Mouse neuron inhibition assay (Mehta, et al., 1996); assay type: cell-based
Procedure: ii. 47% at 2 μM; 87% at 20 μM, as measured in the mouse neuron inhibition assay described in, for example, Mehta, et al., Proc. Natl. Acad. Sci. USA, 93:10471-10476, 1996 (incorporated herein for purposes of reference).

Substance	pIC50 [1]	effect on Ca2+ dependent (Ca2+-triggered) secretion [1]	also measured
170-EIDTQNRQIDRIMEKADSNK-189 [ESUP/E20h]	5.74		
181-IMEKADSNKTRIDEANQRATKMLGSG-206 [ESUP/E26h]	6.60		
187-SNKTRIDEANQRATKMLGSG-206 [ESUP/A20h, 20-mer peptide encompassing the C-terminal region of SNAP-25 (aa 187-206)]	4.92		Inhibitory Activity ([1]; at 100 μM peptide, bovine chromaffin cells): 65%; Inhibitory Activity (mouse neuron; at 2 μM peptide): 47%; Inhibitory Activity (mouse neuron; at 20 μM peptide): 87%
MLDEQGEQLER [SNAP-25(49-59), reference compound]		did not affect	
TDSSGREMIKANKQLANGTR [ESUP/20Ah^RD, control peptide with the same amino acid composition as ESUP/A20h but in random order, reference compound]		no effect	
